Experimental data reported in US6124287A, “Imidazo[1,2-a]quinoxalin-4-amines active as adenosine antagonists, process for their preparation and pharmaceutical compositions thereof” (Biomedica Foscama Industria Chimicofarmaceutica S.p.A., priority 1995, dated 2000).

Columns and labels:
[1] = system: adenosine receptors; conditions: cited from earlier work
[2] = molecular target: T1, A1 receptors (Rattus norvegicus, UniProt P25099); assay: Binding on A1 receptors, rat brain synaptosomial membranes, [3H]-DPCPX; conditions: 0.3 nM [3H]-DPCPX, 1 h, 25° C., pH 7.4
T1 construct: preparations of synaptosomial membranes from rat brain; from tissue; host or cells: rat brain synaptosomal membranes
T1 sequence (P25099 1-326): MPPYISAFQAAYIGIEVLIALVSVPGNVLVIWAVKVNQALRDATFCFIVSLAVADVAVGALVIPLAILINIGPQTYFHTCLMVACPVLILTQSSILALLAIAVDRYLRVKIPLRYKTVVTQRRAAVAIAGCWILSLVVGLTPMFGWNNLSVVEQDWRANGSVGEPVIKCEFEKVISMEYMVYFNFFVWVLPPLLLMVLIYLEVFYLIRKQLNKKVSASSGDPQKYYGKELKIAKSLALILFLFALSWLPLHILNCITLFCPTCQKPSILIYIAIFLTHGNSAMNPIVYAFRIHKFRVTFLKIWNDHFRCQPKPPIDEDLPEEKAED
Description: (§1) Binding on the adenosine receptors.
The binding on A1 receptors has been carried out according to the method described in Naunyn-Schmied. Arch. Pharmacol. 1987, 336, 204 on preparations of synaptosomial membranes from rat brain by incubating 200 μg of membrane proteins for 1 h at 25° C. with the substance to be tested and 0.3 nM [^3 H]-DPCPX in 400 μl of 50 mM Tris.HCl pH=7.4. The non-specific binding has been determined with […].
(§2) The incubations were blocked by filtration by means of a cell-harvester and, after completion of the separation of the bound from the free, the radioactivity contents were evaluated by liquid scintillation. The concentration-inhibition curves were obtained by assaying the receptor displacement at at least ten different concentrations of the test substance (all the assays were carried out in triplicate). The tested substances were dissolved in dimethyl sulphoxide and diluted in 50 mM Tris.HCl buffer pH=7.4. The IC50 values have been determined by non-linear regression curves and transformed into Ki values according to the Cheng-Prusoff equation.

[3] = Forced swim test; assay type: in vivo, Male ablino CD 1 mice; conditions: 1 h before immersion
Description: Forced swim test The test described by R. D. Porsolt et al. in Arch.Int.Pharmacodyn.Ther. 1977, 229, 327, has been carried out which is widely used as an animal model for the study of the antidepressant activity of new drugs. Male ablino CD 1 mice weighing 25-35 g were used. One hour before immersion in water, the test compound is intraperitoneally (i.p.) administered to the animal; the vehicle is administered to the control animals. The duration of permanence in water is 6'; from the 2nd to the 6th minute the time is measured during which the animal remains motionless. […] As the reference substance the tricyclic antidepressant drug desipramine was used.

[4] = Tail suspension test; assay type: in vivo, Male albino CD 1 mice; conditions: half an hour before test
Description: Tail suspension test The test described by L. Steru, et al. in Psychopharmacology 1985, 85, 367, also widely used as an animal model for the screening of antidepressant activity has been carried out. Male albino CD 1 mice weighing 25-35 g were used. Half an hour before the test, the animal is administered the test compound by the i.p. route; the control animals are administered the vehicle. The mouse is suspended from a horizontal bar at about 40 cm from the support plane by means of an adhesive tape applied at the end of the tail and secured to a hook. […] As the reference substance the tricyclic antidepressant drug desipramine was used.

[5] = molecular target: T2, A1 receptors (Rattus norvegicus, UniProt P30543); assay: Binding on receptors (printed A1) of rat striatal membranes, [3H]-CGS21680 + CPA; conditions: 5 nM [3H]-CGS21680, 50 nM CPA, 1 h, 25° C.
T2 construct: preparations of rat striatal membranes; from tissue; host or cells: rat striatal membranes
T2 sequence (P30543 whole entry): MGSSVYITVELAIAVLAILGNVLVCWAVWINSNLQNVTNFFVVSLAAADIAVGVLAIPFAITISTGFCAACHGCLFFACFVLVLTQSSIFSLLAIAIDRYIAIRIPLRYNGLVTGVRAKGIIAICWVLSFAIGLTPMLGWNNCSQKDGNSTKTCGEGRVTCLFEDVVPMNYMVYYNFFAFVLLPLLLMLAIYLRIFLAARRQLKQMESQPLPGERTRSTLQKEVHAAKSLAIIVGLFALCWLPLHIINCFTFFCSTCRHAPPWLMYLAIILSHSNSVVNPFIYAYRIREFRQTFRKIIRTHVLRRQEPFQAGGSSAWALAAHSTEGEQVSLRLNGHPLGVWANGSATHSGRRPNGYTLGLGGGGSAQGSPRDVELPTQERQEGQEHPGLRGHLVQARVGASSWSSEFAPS
Description: as §1
The binding on […] receptors has been carried out according to the method described in FASEB J. 1989, 3, A1047 on preparations of rat striatal membranes by incubating 200 μg of membrane proteins for 1 h at 25° C. with the substance to be tested, 5 nM [^3 H]-CGS21680 and 50 nM CPA. The non-specific binding has been determined with 100 nM CPA.
as §2

SMILES: Cn1c(=O)c2c(ncn2C)n(C)c1=O [caffeine, 1,3,7-trimethylxanthine]
- affinity to the adenosine receptors [1]: low affinity

SMILES: CCC(CC)Nc1nc2ccccc2n2c(C)cnc12 [COMPOUND EX. 5, 4-(1-ethylpropylamino)-1-methylimidazo[1,2-a] quinoxaline]
- Ki [2]: 54 nM

SMILES: Cc1cnc2c(N3CCN(C)CC3)nc3ccccc3n12 [COMPOUND EX. 16, 1-methyl-4(N'-methylpiperazinyl)imidazo[1,2-a]quinoxaline]
- % variation immobility time vs. C. ([3]; 0.1 mg/kg i.p.): -22.4%
- % variation immobility time vs. C. ([3]; 1 mg/kg i.p.): -51.4%

SMILES: Clc1cc2nc(NC3CCCC3)c3nccn3c2cc1Cl [COMPOUND EX. 22, 4-cyclopentylamino-7,8-dichloroimidazo[1,2-a]quinoxaline]
- Ki [2]: 26.5 nM

SMILES: Cc1cnc2c(NC3CCCC3)nc3ccccc3n12 [COMPOUND EX. 9, 4-cyclopentylamino-1-methyl imidazo [1,2-a]quinoxaline]
- Ki [2]: 7.9 nM
- % variation immobility time vs. C. ([4]; 0.001 mg/kg i.p.): -26.7%
- % variation immobility time vs. C. ([4]; 0.01 mg/kg i.p.): -41.1%
- % variation immobility time vs. C. ([4]; 0.1 mg/kg i.p.): -64.3%
- Ki [5]: 2500 nM
- % variation immobility time vs. C. ([3]; 0.001 mg/kg i.p.): -32.8%
- % variation immobility time vs. C. ([3]; 0.01 mg/kg i.p.): -45.3%

SMILES: Cc1cnc2c(NC3CCCCC3)nc3ccc(Cl)cc3n12 [COMPOUND EX. 21, 4-cyclohexylamino-8-chloro-1-methylimidazo[1,2-a]quinoxaline]
- % variation immobility time vs. C. ([3]; 0.001 mg/kg i.p.): -33.0%
- % variation immobility time vs. C. ([3]; 0.01 mg/kg i.p.): -48.6%

SMILES: Cc1cnc2c(N3CCCCC3)nc3ccccc3n12 [COMPOUND EX. 13, 1-methyl-4-piperidinylimidazo[1,2-a]quinoxaline]
- % variation immobility time vs. C. ([3]; 0.1 mg/kg i.p.): -23.5%
- % variation immobility time vs. C. ([3]; 1 mg/kg i.p.): -70.7%

SMILES: CNCCCN1c2ccccc2CCc2ccccc21 [DESIPRAMINE, reference compound]
- % variation immobility time vs. C. ([4]; 4 mg/kg i.p.): -21.3%
- % variation immobility time vs. C. ([4]; 16 mg/kg i.p.): -62.4%
- % variation immobility time vs. C. ([3]; 7.5 mg/kg i.p.): -10.4%
- % variation immobility time vs. C. ([3]; 30 mg/kg i.p.): -41.4%

SMILES: Cn1c(=O)c2[nH]cnc2n(C)c1=O [theophylline, 1,3-dimethylxanthine]
- affinity to the adenosine receptors [1]: low affinity

SMILES: Fc1ccc2nc(NC3CCCC3)c3nccn3c2c1 [COMPOUND EX. 25]
- Ki [2]: 84 nM

SMILES: Clc1ccc2nc(NC3CCCC3)c3nccn3c2c1 [COMPOUND EX. 18, 4-cyclopentylamino-8-chloroimidazo[1,2-a]quinoxaline]
- Ki [2]: 23.5 nM
- % variation immobility time vs. C. ([3]; 1 mg/kg i.p.): -42.3%
- % variation immobility time vs. C. ([3]; 10 mg/kg i.p.): -52.8%
